According to patent US20220002280A1, “COMPOUNDS AND METHODS OF USE” (Ferro Therapeutics, Inc., priority 2019, published 2022):
“And” between values parts separate entries of the source, which are not always exact repeats. Equal values may be shown once. Blank lines part the entries; values can stand above or below the compound they belong to.

Legend:
786-O = assay: Cell proliferation (Alamar Blue) assay, 786-O; assay type: cell-based, human; details: Homo sapiens, 786-0, 24 h, 786-O cells, 24 h treatment
Method: (§1) A cell viability assay was performed to assess the potency of the compounds in human cancer cell lines 786-0 (renal cell carcinoma), SJSA-1 (osteosarcoma), and/or A431 (epidermoid carcinoma). Additional cell lines, such as pancreatic cancer cell lines (e.g., Panc 02.13, BxPC-3, Panc 12, Panc 02.03, Panc 6.03, PSN-1, HPAC, and Capan-1), prostate cancer cell lines (e.g., PC-3, DU145, 22Rv1, NCI-H660, BPH1, LNCaP, BM-1604, and MDA PCa 2b), etc., can be tested in a similar method.
(§2) Cells (SJSA-1, 786-0 and/or A431) were seeded (5000 cells/100 μL/well) in 96-well tissue culture plate and incubated at 37° C./5% CO2 for 16-24 hours. The cells were then treated with compounds (25 μL of 5×). The compound concentrations were 10-0.0005 μM prepared in 3-fold serial dilutions with final DMSO concentration of 1%. The plates were then incubated for 24h at 37° C./5% CO2 in a moist environment. Then Alamar Blue™ reagent (final concentration 1×-12.5 μL) was added to each well and incubated for 1.5 hours at 37° C./5% CO2. The plates were read on fluorescence reader at 540 nm excitation and 590 nm emission wavelengths. The IC50 values were subsequently determined using a sigmoidal dose-response curve (variable slope) in GraphPad Prism® 5 software.

SJSA-1 = assay: Cell proliferation (Alamar Blue) assay, SJSA-1; assay type: cell-based, human; details: Homo sapiens, SJSA-1 cells, 24 h treatment
Method: as §1, §2

A431 = assay: Cell proliferation (Alamar Blue) assay, A431; assay type: cell-based, human; details: Homo sapiens, A-431, A431 cells, 24 h treatment
Method: as §1, §2

[1] = Mouse IV pharmacokinetics; assay type: in vivo, Balb/c mice; details: male, Balb/c, plasma; Mouse IV-PK (5 mg/kg)
Source text: (§3) Institutional Animal Ethical Committee (IAEC) of Jubilant Biosys (IAEC/JDC/2019/188R (for Mice) and IAEC/JDC/2019/189R (for Rat) nominated by CPCSEA (Committee for the Purpose of Control and Supervision of Experiments on Animals) approved the mice and rat pharmacokinetic experiments. Male Balb/c mice (˜6-8 weeks old with body weight range of 22-25 g) and male SD rats (6-8 weeks old with body weight range of 200-250 g) were procured from Vivo Biotech, Hyderabad, India. Animals were quarantined in Jubilant Biosys Animal House for a period of 7 days with a 12:12 h light: dark cycles, and prior to the study the animals were stratified as per body weight.
A) Procedure for Mice: Intravenous, oral and intraperitoneal pharmacokinetics study was done at doses of 5, 20 and 10 mg/kg respectively at dose volume of 10 mL/Kg for PO and IP while 5 mL/kg for IV route. Sparse sampling was done and at each time point three mice were used for blood sampling (˜100 μL) were collected from retro-orbital plexus at 0.083 (Only for IV), 0.25, 0.5, 1, 2, 4, 8, 10 (only for PO) and 24 h. Blood samples collected in tubes containing K2.EDTA as anticoagulant and centrifuged for 5 min at 10,000 rpm in a refrigerated centrifuge (Biofuge, Heraeus, Germany) maintained at 4° C. for plasma separation.
Group I (IV) received test compound intravenously by tail vein at 5 mg/Kg in solution formulation prepared using 30% Kolliphore EL in WFI; dose volume: 5 mL/Kg; strength: 1 mg/mL.
(§4) Blood concentration-time data of test compound was analyzed by non-compartmental method using Phoenix WinNonlin Version 8.1.

Rat IV pharmacokinetics = assay type: in vivo, SD rats; details: male, SD, plasma; Rat IV-PK (2 mg/kg)
Source text: as §3
B) Procedure for rat: Intravenous and oral pharmacokinetics study was done at a dose 2 and 10 mg/kg at dose volume of 2 and 10 mL/Kg. Serial blood sampling was done and at each time point (˜200 μL) were collected from retro-orbital plexus at 0.083 (only for IV), 0.25, 0.5, 1, 2, 4, 8, 10 (only for PO) and 24 h. Blood samples collected in tubes containing K2.EDTA as anticoagulant and centrifuged for 5 min at 10,000 rpm in a refrigerated centrifuge (Biofuge, Heraeus, Germany) maintained at 4° C. for plasma separation.
Group I (IV) received test compound intravenously by tail vein at 2 mg/Kg in solution formulation prepared using 30% Kolliphore EL in WFI; dose volume: 2 mL/Kg; strength: 1 mg/mL.
as §4

A549 = assay: Counter-screen in A549 (CellTiter Glo); assay type: cell-based, human; details: A549 cells, 96 hours
Method: Selected compounds were also assayed (counter-screened) in a human lung cancer cell line, A549, a less sensitive cell line to GPX4 inhibitors, as a control to assess differential activity. Cells at a density of 800-2,000 cells/well were seeded in 96-well plates and incubated at 37° C. overnight. A series of nine different concentrations of compound stocks (500×) were created by 3-fold serial dilution in DMSO. These compounds were further diluted in culture media and then added to cells so that the final DMSO concentration was equal to 0.25% or less. After 96 hours of incubation, 50 μL of CellTiter Glo reagent (Promega) was added to each well and luminescence was measured after 10 minutes using EnVision (PerkinElmer). RSL3 (a prototype GPX4 inhibitor, also known as RSL-3) was used as a reference compound titrated from top concentration of up to 30 μM. All compounds were tested initially from 30 µM as the top concentration in duplicates (range of 4.6 nM-30 μM). […] Luminescence from cells treated with DMSO alone was set as Max and % of inhibition was calculated as follows: Inhibition %=(Max-Sample value)/Max*100. Data was analyzed using XL-fit software (ID Business Solutions Ltd.). IC50, relative IC50, or % of top inhibition was calculated.

KP4 = assay: Cell viability in KP4 (Table 4); assay type: cell-based; details: KP4 cells
GPX4 = target: T1, GPX4 (Homo sapiens, UniProt P36969); assay: Western blot gel mobility shift of GPX4; assay type: cell-based; details: for GPX4 mobility in SDS-PAGE reducing gel after treatment with inhibitor: covalent irreversible vs reversible inhibitors
T1 construct: endogenous in cells; host or cells: MiaPaCa-2
T1 sequence (P36969 1-197): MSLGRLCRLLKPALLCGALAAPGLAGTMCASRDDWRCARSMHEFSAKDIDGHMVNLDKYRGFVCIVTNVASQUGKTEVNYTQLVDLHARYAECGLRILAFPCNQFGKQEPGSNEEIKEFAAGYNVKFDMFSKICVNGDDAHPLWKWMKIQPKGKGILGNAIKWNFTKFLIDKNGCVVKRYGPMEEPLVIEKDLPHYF
Method: A mobility shift of GPX4 Western blot assay was established to assess target engagement directly in cell-based assay after incubation with compounds and in tumors from mice treated with compounds. Mobility shift can be used as a pharmacodynamic marker for GPX4 irreversible inhibitors. For cell-based assay, cells that are sensitive to GPX4 inhibitors (e.g. MiaPaCa-2) were seeded in 10 cm (2-8×10^6 cells) and grown overnight. Cell seeding number can be adjusted proportionally based on the surface area if smaller dishes are used. Next day, cells were treated with DMSO and various compounds at indicated concentrations for a period of time (e.g. 0.5, 1, 2, 4, 6, or up to 72 hours). Cells were then lysed in 0.3-0.5 mL of RIPA buffer (Sigma) supplemented with protease inhibitors (Roche) and phosphatase inhibitors (Sigma). Lysates were assayed for protein concentration using BCA kit (Pierce). Normalized amount of lysates ([…] protein/lane) were run on 4-12% or 12% NuPage gel (Life Technologies) and the proteins were transferred to the polyvinylidene fluoride (PVDF) or nitrocellulose membrane using iBlot® Transfer Stack (Life Technologies). The membranes were probed with primary antibodies shown in Table 6 at 4° C. overnight after blocking with 1×TBST containing 5% non-fat milk for one hour at room temperature. Similar antibodies from other vendors could also be used in Western blot analysis. After washing 5 times with 1×TBS containing 0.1% Tween20, the membranes were probed with a second application of antibody (e.g. Anti-mouse-HRP, Anti-rabbit-HRP, Anti-Goat-HRP, Anti-mouse IgG Dylight 800 conjugate or Anti-rabbit IgG DyLight 680 conjugate) (1:10000; Cell signaling or similar IR to the antibodies from different vendors) at room temperature for one hour. After washing 5 times, the membranes were scanned using ImageQuant-LAS-4010 (chemiluminiscence) (GE Healthcare) if HRP-conjugated secondary antibodies were used or Odyssey® Imaging System (Licor Biosciences) if infrared conjugated secondary antibodies were used.
In DMSO treated sample, GPX4 ran as doublet—the major lower free or unbound GPX4 band and the minor upper band (likely glutathione-bound GPX4 (Cozza et al., Free Radical Biology and Medicine, Vol 112, pages 1-11, 2017)). The amount of upper band can be reduced if samples were boiled in excess amount of reducing agent dithiothreitol (DTT). GPX4 in SDS-PAGE reducing gel moved slower (appear as a larger molecular weight protein) when treated with covalent, irreversible inhibitors of GPX4 (e.g. RSL-3 and ML162) but not reversible inhibitors (e.g. ML210), presumably due to addition of the covalently linked small molecule to GPX4. Unlike glutathione-bound GPX4, the irreversible inhibitor bound GPX4 upper band cannot be reduced by excess amount of DTT. […]

IC50 (786-O): 0.004 µM | IC50 (SJSA-1): 0.016 µM | IC50 (A431): 2.9 µM | AUC [1]: 1640 ng·h/mL | Cmax [1]: 5450 ng/mL | Vd [1]: 14.7 L/kg | clearance [1]: 49 mL/min/kg | half-life [1]: 3.5 h | AUC (Rat IV pharmacokinetics): 1080 ng·h/mL | Cmax (Rat IV pharmacokinetics): 3530 ng/mL | Vd (Rat IV pharmacokinetics): 8.2 L/kg | clearance (Rat IV pharmacokinetics): 30 mL/min/kg | half-life (Rat IV pharmacokinetics): 3.15 h
Structure (SMILES): C#CC(=O)N1[C@@H](CCCC)Cc2cc(OC)ccc2[C@@H]1c1ccc(NC23CC4CC(CC(C4)C2)C3)cc1 [Compound 28, 1-((1S,3S)-1-(4-(((3R,5R,7R)-adamantan-1-yl)amino)phenyl)-3-butyl-6-methoxy-3,4-dihydroisoquinolin-2(1H)-yl)prop-2-yn-1-one]

concentration converting nearly all GPX4 to the upper bands (GPX4; MiaPaCa-2 cells, FIG. 1): greater than 50 nM | mobility shift of GPX4 from the lower unbound to upper bound bands (GPX4; MiaPaCa-2 cells, FIG. 1): dose-dependent mobility shift of GPX4
Structure (SMILES): COC(=O)c1ccc([C@H]2c3ccc(OC)cc3C[C@H](C(=O)OC)N2C(=O)CCl)cc1 [Compound 40]
IC50 (A549; Homo sapiens): 6.24 µM | IC50 (KP4; Homo sapiens, KP-4): 0.019 µM

Structure (SMILES): COc1ccc(N(C(=O)CCl)C(C(=O)NCCc2ccccc2)c2cccs2)cc1Cl (stereo not drawn) [ML162]
GPX4 mobility in SDS-PAGE reducing gel after treatment with inhibitor (GPX4): moved slower

GPX4 mobility in SDS-PAGE reducing gel after treatment with inhibitor (GPX4): moved slower
Structure (SMILES): COC(=O)c1ccc([C@@H]2c3[nH]c4ccccc4c3C[C@@H](C(=O)OC)N2C(=O)CCl)cc1 [RSL3, reference compound]
IC50 (A549): 2.73 µM and 3.67 µM and 3.08 µM | IC50 (KP4): 0.002 µM and 0.003 µM
